Where two headings read alike, the source gives them in different places.
Experiments:
[1] = type: in vivo
Description: The endpoint for the primary objective is the incidence of Dose Limiting Toxicities (DLTs) during the first cycle of treatment. Although the primary analysis estimates the MTD based on DLT rate, the final preferred dose determination utilizes additional data beyond cycle 1 DLT rate, including later cycle tolerability, PK, PD and anti-tumor activity.
Therefore, dose limiting hematologic toxicities occurring in cycle 2 were also factored into dose escalation decisions during the course of the study, using a non-binding sensitivity model. Table Ex2.4 summarizes the number of dose limiting toxicities during cycle 1 and dose limiting hematologic toxicities in cycle 2 across all the regimens evaluated in solid tumors.
This study utilizes a Bayesian logistic regression model (BLRM) to support dose escalation and estimate the MTD and/or determine the preferred dose for HDM201. The BLRM with escalation with overdose control (EWOC) enables incorporation of available prior information and updates the model parameters based upon new information about observed dose limiting toxicities (DLT) seen in the clinical study. During the course of the dose escalation for regimen 1A and 1B, DLT incidence has been used to update the model and support the decision for the next dose. When during the course of the study it became apparent that HDM201 induced bone marrow toxicity occurred predominantly during cycle 2, a non-binding sensitivity model including cycle 1 DLT and hematologic dose limiting AEs in cycle 2 (weighting all cytopenias equally) was used to guide dose escalation/RDE determinations. Additionally, decisions were at all times based on a synthesis of relevant data available from all dose levels evaluated in the study including low grade toxicities, PK, and PD data (when available) from evaluable patients.

[2] = tested on: p53 knock out Colon 26 clones; experiment: p53 KO Colon26 model; type: in vivo, mouse
Description: p53 knock out Colon 26 Clones were grown in the presence of 1 μM HDM201 and screened for p53 expression by western blot, loading 40 μg total protein/sample, using an anti p53 antibody (Cell Signaling CST #2524). p53 negative clones were identified, grown without HDM201 for 4 days and then re-treated with 1 μM HDM201 for 24 hours, along with Colon26 parental cells, to monitor p53 pathway’ response. p53 and p21 changes were monitored by western blot and an 84 gene qPCR array was used to additionally confirm pathway activity (RT2 Profiler PCR Array p53 pathway, Cat No. 330231 PAMM-027ZA Qiagen). Select clones were also submitted for RNASeq analysis.
There was no additional benefit observed when the PD-1/PD-L1 axis was blocked (FIG. 30).

[3] = 1A (d 1 Q3 weeks) 12.5 mg (n = 1)
[4] = 1B (d 1, d 8 of 4 w cycle) 120 mg (n = 9)
[5] = 2A (2 weeks on/2 weeks off) 1 mg (n = 1)
[6] = 2C (1 week on/3 weeks off) 15 mg (n = 8)

With `COc1ncc(-c2nc3c(n2C(C)C)[C@H](c2ccc(Cl)cc2)N(c2cc(Cl)cn(C)c2=O)C3=O)c(OC)n1` [HDM201, (S)-5-(5-Chloro-1-methyl-2-oxo-1,2-dihydro-pyridin-3-yl)-6-(4-chloro-phenyl)-2-(2,4-dimethoxy-pyrimidin-5-yl)-1-isopropyl-5,6-dihydro-1H-pyrrolo[3,4-d]imidazol-4-one] the “DLTs (cycle 1)” value ([1]; 1A 25 mg (n = 1)) was 0, the “Hematologic dose limiting toxicities (cycle 2)” value ([1]; 1A 25 mg (n = 1)) was 0 and the “DLTs (cycle 1)” value ([1]; 1A 50 mg (n = 4)) was 0. The “Hematologic dose limiting toxicities (cycle 2)” value ([1]; 1A 50 mg (n = 4)) was 1, the “DLTs (cycle 1)” value ([1]; 1A 100 mg (n = 4)) was 0 and the “Hematologic dose limiting toxicities (cycle 2)” value ([1]; 1A 100 mg (n = 4)) was 0. For the same molecule, the “DLTs (cycle 1)” value ([1]; 1A 200 mg (n = 5)) was 0, the “Hematologic dose limiting toxicities (cycle 2)” value ([1]; 1A 200 mg (n = 5)) was 1 and the “DLTs (cycle 1)” value ([1]; 1A 250 mg (n = 6)) was 0. The “Hematologic dose limiting toxicities (cycle 2)” value ([1]; 1A 250 mg (n = 6)) was 1, the “DLTs (cycle 1)” value ([1]; 1A 350 mg (n = 5)) was 2 and the “Hematologic dose limiting toxicities (cycle 2)” value ([1]; 1A 350 mg (n = 5)) was 2. For the same molecule, the “DLTs (cycle 1)” value [1, 3] was 0, the “Hematologic dose limiting toxicities (cycle 2)” value [1, 3] was 0 and the “DLTs (cycle 1)” value ([1]; 1B 150 mg (n = 8)) was 1. For the same molecule, the “Hematologic dose limiting toxicities (cycle 2)” value ([1]; 1B 150 mg (n = 8)) was 1, the “DLTs (cycle 1)” value ([1]; 1B 200 mg (n = 3)) was 0 and the “DLTs (cycle 1)” value [1, 4] was 0. For the same molecule, the “Hematologic dose limiting toxicities (cycle 2)” value [1, 4] was 2, the “DLTs (cycle 1)” value ([1]; 2A 2 mg (n = 2)) was 0 and the “Hematologic dose limiting toxicities (cycle 2)” value ([1]; 2A 2 mg (n = 2)) was 0. For the same molecule, the “DLTs (cycle 1)” value ([1]; 2A 4 mg (n = 4)) was 0, the “Hematologic dose limiting toxicities (cycle 2)” value ([1]; 2A 4 mg (n = 4)) was 0 and the “DLTs (cycle 1)” value ([1]; 2A 7.5 mg (n = 4)) was 0. For the same molecule, the “Hematologic dose limiting toxicities (cycle 2)” value ([1]; 2A 7.5 mg (n = 4)) was 0, the “DLTs (cycle 1)” value ([1]; 2A 15 mg (n = 4)) was 0 and the “Hematologic dose limiting toxicities (cycle 2)” value ([1]; 2A 15 mg (n = 4)) was 1. For the same molecule, the “DLTs (cycle 1)” value ([1]; 2A 20 mg (n = 5)) was 0, the “Hematologic dose limiting toxicities (cycle 2)” value ([1]; 2A 20 mg (n = 5)) was 4 and the “DLTs (cycle 1)” value [1, 5] was 0. For the same molecule, the “Hematologic dose limiting toxicities (cycle 2)” value [1, 5] was 0, the “DLTs (cycle 1)” value ([1]; 2C 20 mg (n = 6)) was 0 and the “Hematologic dose limiting toxicities (cycle 2)” value ([1]; 2C 20 mg (n = 6)) was 0. For the same molecule, the “DLTs (cycle 1)” value ([1]; 2C 25 mg (n = 5)) was 2, the “Hematologic dose limiting toxicities (cycle 2)” value ([1]; 2C 25 mg (n = 5)) was 0 and the “DLTs (cycle 1)” value [1, 6] was 0. For the same molecule, the “Hematologic dose limiting toxicities (cycle 2)” value [1, 6] was 1, the “Median DLT rate, per protocol analysis” value ([1]; BLRM, regimen 1B 120 mg) was 3.5% and the “Median DLT rate, sensitivity analysis” value ([1]; BLRM, regimen 1B 120 mg) was 25.7%. For the same molecule, the “RDE for patients with solid tumors” value ([1]; D1 and D8 of each 28 day cycle) was 120 mg, the “DLTs (cycle 1), Total” value ([1]; regimen 1A, N = 26) was 2 and the “Hematologic dose limiting toxicities (cycle 2), Total” value ([1]; regimen 1A, N = 26) was 5. The “dose up to which BLRM (cycle 1 DLT events) supported escalation” value ([1]; regimen 1B) was “up to 400 mg”, the “events of prolonged neutropenia meeting DLT criteria” value ([1]; regimen 1B 150 mg, onset on day 22, lasting 18 days) was “One” and the “DLTs (cycle 1), Total” value ([1]; regimen 1B, N = 20) was 1. For the same molecule, the “Hematologic dose limiting toxicities (cycle 2), Total” value ([1]; regimen 1B, N = 20) was 3, the “DLTs (cycle 1), Total” value ([1]; regimen 2A, N = 20) was 0 and the “Hematologic dose limiting toxicities (cycle 2), Total” value ([1]; regimen 2A, N = 20) was 5. The “DLTs (cycle 1), Total” value ([1]; regimen 2C, N = 19) was 2, the “Hematologic dose limiting toxicities (cycle 2), Total” value ([1]; regimen 2C, N = 19) was 1 and the “Dose-limiting toxicities (type)” value ([1]; typically occurring during Cycle 2) was “neutropenia and thrombocytopenia”. For the same molecule, the tumor growth inhibition [2] was “not able to inhibit tumor growth”.

From patent US20210363254A1, “PHARMACEUTICAL COMBINATIONS” (Novartis AG, priority 2018, published 2021)
